Assay results reported in PubChem BioAssay AID330 (DTP/NCI, 2004).
“And” between values parts separate entries of the source, which are not always exact repeats. Equal entries are not always repeated. Inconclusive results and toxic doses are left out. The calls were made as follows: active = survival T/C of 150% or more; inactive = T/C below 125% in these data.

Test system: P388 leukemia ip, CD2F1 mice, survival T/C
Assay: NCI In Vivo Anticancer Drug Screen. Data for tumor model P388 Leukemia (intraperitoneal) in CD2F1 (CDF1) mice
Conditions: endpoint: median survival time, higher = longer survival
In short: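 Mice carrying the transplanted tumor received test compound or vehicle. Survival was recorded in each group, and the value is the treated-group measurement divided by that of the vehicle-treated control group.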

[1] = dose: 100.0 mg/kg/injection, schedule: Q01DX009 (ip), vehicle: saline with Tween-80
[2] = dose: 200.0 mg/kg/injection, schedule: Q01DX009 (ip), vehicle: saline with Tween-80
[3] = dose: 50.0 mg/kg/injection, schedule: Q01DX009 (ip), vehicle: saline
[4] = dose: 100.0 mg/kg/injection, schedule: Q01DX009 (ip), vehicle: saline
[5] = dose: 6.25 mg/kg/injection, schedule: Q01DX009 (ip), vehicle: other
[6] = dose: 12.5 mg/kg/injection, schedule: Q01DX009 (ip), vehicle: other
[7] = dose: 25.0 mg/kg/injection, schedule: Q01DX009 (ip), vehicle: other
[8] = dose: 50.0 mg/kg/injection, schedule: Q01DX009 (ip), vehicle: other
[9] = dose: 100.0 mg/kg/injection, schedule: Q01DX009 (ip), vehicle: other
[10] = dose: 200.0 mg/kg/injection, schedule: Q01DX009 (ip), vehicle: other
[11] = dose: 400.0 mg/kg/injection, schedule: Q01DX009 (ip), vehicle: other
[12] = dose: 50.0 mg/kg/injection, schedule: Q01DX005 (ip), vehicle: saline with Tween-80
[13] = dose: 100.0 mg/kg/injection, schedule: Q01DX005 (ip), vehicle: saline with Tween-80
[14] = dose: 200.0 mg/kg/injection, schedule: Q01DX005 (ip), vehicle: saline with Tween-80

Measured: T/C

COc1cc(C(NC(N)=O)c2cc3c(cc2O)OCO3)cc(OC)c1O (configuration not stated)
inactive: dose: 60.0 mg/kg/injection, schedule: Q01DX005 (ip), vehicle: Klucel + Tween-80 100 % of control | dose: 120.0 mg/kg/injection, schedule: Q01DX005 (ip), vehicle: Klucel + Tween-80 88 % of control | dose: 240.0 mg/kg/injection, schedule: Q01DX005 (ip), vehicle: Klucel + Tween-80 88 % of control

CN(CCC#N)c1ccc(/C=C(\C#N)C(N)=O)cc1
inactive: dose: 20.0 mg/kg/injection, schedule: Q01DX009 (ip), vehicle: saline with Tween-80 101 % of control | dose: 25.0 mg/kg/injection, schedule: Q01DX009 (ip), vehicle: saline with Tween-80 97 % of control | dose: 40.0 mg/kg/injection, schedule: Q01DX009 (ip), vehicle: saline with Tween-80 89 % of control | dose: 50.0 mg/kg/injection, schedule: Q01DX009 (ip), vehicle: saline with Tween-80 98 % of control | [1] 97 % of control | dose: 160.0 mg/kg/injection, schedule: Q01DX009 (ip), vehicle: saline with Tween-80 90 % of control | [2] 97 % of control

Nc1ccc(O)c2c1C(=O)c1c(O)ccc(N)c1C2=O
inactive: dose: 50.0 mg/kg/injection, schedule: Q01DX005 (ip), vehicle: Klucel (hydroxypropylcellulose) (HPC) 100 % of control | dose: 100.0 mg/kg/injection, schedule: Q01DX005 (ip), vehicle: Klucel (hydroxypropylcellulose) (HPC) 105 % of control | dose: 200.0 mg/kg/injection, schedule: Q01DX005 (ip), vehicle: Klucel (hydroxypropylcellulose) (HPC) 87 % of control

CC(C)=CCC/C(C)=C/COc1cc(O)c2c(c1)C(=O)c1cc(C)cc(O)c1C2=O
inactive: dose: 5.0 mg/kg/injection, schedule: Q01DX009 (ip), vehicle: DMSO 100 % of control | dose: 10.0 mg/kg/injection, schedule: Q01DX009 (ip), vehicle: DMSO 97 % of control | dose: 20.0 mg/kg/injection, schedule: Q01DX009 (ip), vehicle: DMSO 97 % of control

O=C(/C=C/C(=O)OCC(Cl)(Cl)Cl)OCC(Cl)(Cl)Cl
inactive: [1] 100 % of control | [2] 114 % of control | dose: 400.0 mg/kg/injection, schedule: Q01DX009 (ip), vehicle: saline with Tween-80 106 % of control

CC1(c2ccc3ccccc3c2)C(C#N)(C#N)C1(C#N)C#N
inactive: dose: 12.5 mg/kg/injection, schedule: Q01DX009 (ip), vehicle: saline 100 % of control | dose: 25.0 mg/kg/injection, schedule: Q01DX009 (ip), vehicle: saline 102 % of control | [3] 89 % of control | [4] 103 % of control

COc1ccc2c(c1)[nH]c1c(/C=C/c3ccc([N+](=O)[O-])cc3)nccc12
inactive: dose: 30.0 mg/kg/injection, schedule: Q01DX005 (ip), vehicle: Klucel (hydroxypropylcellulose) (HPC) 107 % of control | dose: 60.0 mg/kg/injection, schedule: Q01DX005 (ip), vehicle: Klucel (hydroxypropylcellulose) (HPC) 103 % of control | dose: 120.0 mg/kg/injection, schedule: Q01DX005 (ip), vehicle: Klucel (hydroxypropylcellulose) (HPC) 105 % of control | dose: 240.0 mg/kg/injection, schedule: Q01DX005 (ip), vehicle: Klucel (hydroxypropylcellulose) (HPC) 90 % of control

Cc1nn(-c2ccc(Cl)cc2)c2nc(N)nc(N)c12
inactive: dose: 6.25 mg/kg/injection, schedule: Q04DX002 (ip), vehicle: Klucel (hydroxypropylcellulose) (HPC) 92 % of control | dose: 12.5 mg/kg/injection, schedule: Q04DX002 (ip), vehicle: Klucel (hydroxypropylcellulose) (HPC) 89 % of control and 93 % of control | dose: 25.0 mg/kg/injection, schedule: Q04DX002 (ip), vehicle: Klucel (hydroxypropylcellulose) (HPC) 92 % of control | dose: 50.0 mg/kg/injection, schedule: Q04DX002 (ip), vehicle: Klucel (hydroxypropylcellulose) (HPC) 89 % of control | dose: 100.0 mg/kg/injection, schedule: Q04DX002 (ip), vehicle: Klucel (hydroxypropylcellulose) (HPC) 105 % of control | dose: 200.0 mg/kg/injection, schedule: Q04DX002 (ip), vehicle: Klucel (hydroxypropylcellulose) (HPC) 115 % of control | dose: 400.0 mg/kg/injection, schedule: Q04DX002 (ip), vehicle: Klucel (hydroxypropylcellulose) (HPC) 113 % of control

CCSC(C(OC(C)=O)C(OC(C)=O)C(COC(C)=O)OC(C)=O)n1cnc2c(=S)nc[nH]c21 (configuration not stated)
inactive: dose: 100.0 mg/kg/injection, schedule: Q01DX001 (ip), vehicle: saline with Tween-80 101 % of control | dose: 200.0 mg/kg/injection, schedule: Q01DX001 (ip), vehicle: saline with Tween-80 93 % of control | dose: 400.0 mg/kg/injection, schedule: Q01DX001 (ip), vehicle: saline with Tween-80 87 % of control

COC(=O)Nc1cnc(C)c(C)c1-c1ccc(OC)c(OC)c1OCc1ccccc1
inactive: dose: 0.05 mg/kg/injection, schedule: Q01DX009 (ip), vehicle: water 96 % of control | dose: 0.1 mg/kg/injection, schedule: Q01DX009 (ip), vehicle: water 111 % of control | dose: 0.2 mg/kg/injection, schedule: Q01DX009 (ip), vehicle: water 110 % of control | dose: 0.4 mg/kg/injection, schedule: Q01DX009 (ip), vehicle: water 104 % of control and 105 % of control | dose: 0.8 mg/kg/injection, schedule: Q01DX009 (ip), vehicle: water 106 % of control | dose: 1.6 mg/kg/injection, schedule: Q01DX009 (ip), vehicle: water 109 % of control | dose: 3.2 mg/kg/injection, schedule: Q01DX009 (ip), vehicle: water 103 % of control | [5] 103 % of control | dose: 6.4 mg/kg/injection, schedule: Q01DX009 (ip), vehicle: water 104 % of control | [6] 103 % of control | [7] 104 % of control | [8] 98 % of control | [9] 108 % of control | [10] 99 % of control | [11] 99 % of control

OCC1SC(O)C(O)C(O)C1O (configuration not stated)
inactive: dose: 120.0 mg/kg/injection, schedule: Q##DX005 (ip), vehicle: saline 97 % of control | dose: 240.0 mg/kg/injection, schedule: Q##DX005 (ip), vehicle: saline 92 % of control | dose: 600.0 mg/kg/injection, schedule: Q01DX001 (ip), vehicle: saline 102 % of control and 104 % of control | dose: 1200.0 mg/kg/injection, schedule: Q01DX001 (ip), vehicle: saline 100 % of control and 104 % of control

O=C1C[C@@H]2OCC=C3C[N+]4([O-])CC[C@]56c7ccccc7N1[C@H]5[C@H]2[C@H]3C[C@@H]64 (some centres not stated)
inactive: dose: 12.5 mg/kg/injection, schedule: Q01DX005 (ip), vehicle: saline 95 % of control | dose: 25.0 mg/kg/injection, schedule: Q01DX005 (ip), vehicle: saline 88 % of control

COc1ccc(C(Cc2cc(OC)c(OC)cc2Br)NC=O)cc1OC (configuration not stated)
inactive: [12] 89 % of control | [13] 90 % of control | [14] 91 % of control

OC(c1cc(F)c(F)c(F)c1F)(C(F)(F)F)C(F)(F)F
inactive: dose: 100.0 mg/kg/injection, schedule: Q04DX003 (ip), vehicle: suspension in saline 98 % of control | dose: 200.0 mg/kg/injection, schedule: Q04DX003 (ip), vehicle: suspension in saline 104 % of control | dose: 400.0 mg/kg/injection, schedule: Q04DX003 (ip), vehicle: suspension in saline 101 % of control

COC1CC(NC(C)=O)C(OC(=O)c2ccccc2)C(CBr)O1 (configuration not stated)
inactive: dose: 1.56 mg/kg/injection, schedule: Q01DX009 (ip), vehicle: other 94 % of control | dose: 3.13 mg/kg/injection, schedule: Q01DX009 (ip), vehicle: other 94 % of control | [5] 106 % of control | [6] 108 % of control | [7] 100 % of control and 106 % of control | [8] 101 % of control | [9] 104 % of control | [10] 97 % of control | [11] 92 % of control

CSC(=NS(=O)(=O)c1ccc(C)cc1)SC
inactive: [3] 109 % of control | [4] 106 % of control | dose: 200.0 mg/kg/injection, schedule: Q01DX009 (ip), vehicle: saline 113 % of control

N#CCCn1ccc2ccccc21
inactive: dose: 100.0 mg/kg/injection, schedule: Q04DX003 (ip), vehicle: other 113 % of control | dose: 200.0 mg/kg/injection, schedule: Q04DX003 (ip), vehicle: other 100 % of control | dose: 400.0 mg/kg/injection, schedule: Q04DX003 (ip), vehicle: other 90 % of control

CCOC(=O)CC(=O)CC(C(=O)OCC)C(=O)OCC
inactive: [12] 98 % of control | [13] 104 % of control | [14] 105 % of control
